In ChEMBL document CHEMBL5325409, “Exploiting HOPNO-dicopper center interaction to development of inhibitors for human tyrosinase” (Eur J Med Chem, 2023):

How the values were obtained:
Tyrosinase [1] = target: T1, Tyrosinase (Homo sapiens, UniProt P14679); format: subcellular, MNT-1, Lysates
T1 sequence (P14679 whole entry): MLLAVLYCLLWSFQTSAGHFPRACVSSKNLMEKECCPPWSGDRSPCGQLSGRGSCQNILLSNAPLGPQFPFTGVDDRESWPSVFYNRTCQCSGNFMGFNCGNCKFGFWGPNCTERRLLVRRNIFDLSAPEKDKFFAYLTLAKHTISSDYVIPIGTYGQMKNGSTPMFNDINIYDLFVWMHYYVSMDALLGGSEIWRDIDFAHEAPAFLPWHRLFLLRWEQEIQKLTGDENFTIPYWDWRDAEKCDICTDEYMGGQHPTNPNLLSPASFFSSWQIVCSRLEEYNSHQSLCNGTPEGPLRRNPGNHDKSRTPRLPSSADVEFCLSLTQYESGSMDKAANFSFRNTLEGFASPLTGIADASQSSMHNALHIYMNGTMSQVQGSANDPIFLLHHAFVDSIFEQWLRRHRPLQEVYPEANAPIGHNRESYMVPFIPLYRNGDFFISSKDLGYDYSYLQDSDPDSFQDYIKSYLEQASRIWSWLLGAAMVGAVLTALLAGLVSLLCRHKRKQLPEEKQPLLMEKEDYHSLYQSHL

Tyrosinase [2] = target: T1, Tyrosinase; format: cell-based, MNT-1
Description: Inhibition of tyrosinase in human MNT-1 cells assessed as inhibition of melanin production measured after 96 hrs

Tyrosinase [3] = target: T1, Tyrosinase
Description: Competitive inhibition of human recombinant tyrosinase expressed in Sf9 cells using L-DOPA as substrate by Michelis-Menten based analysis

Tyrosinase [4] = target: T2, Tyrosinase (Streptomyces antibioticus, UniProt P07524)
T2 sequence (P07524 whole entry): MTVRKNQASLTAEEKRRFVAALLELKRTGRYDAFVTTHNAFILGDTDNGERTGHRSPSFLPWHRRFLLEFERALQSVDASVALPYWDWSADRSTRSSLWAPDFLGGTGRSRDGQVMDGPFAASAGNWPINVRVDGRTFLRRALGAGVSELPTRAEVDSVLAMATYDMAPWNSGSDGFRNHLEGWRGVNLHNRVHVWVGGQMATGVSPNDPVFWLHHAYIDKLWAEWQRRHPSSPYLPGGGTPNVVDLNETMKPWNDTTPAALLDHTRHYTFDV
Description: Competitive inhibition of Streptomyces antibioticus tyrosinase using L-DOPA as substrate by Michelis-Menten based analysis

Mushroom tyrosinase = Mushroom tyrosinase (Agaricus bisporus, UniProt O42713+Q00024+C7FF04+C7FF05)
Description: Competitive inhibition of Agaricus bisporus tyrosinase using L-DOPA as substrate by Michelis-Menten based analysis

Tyrosinase [5] = target: T3, Tyrosinase (Mus musculus, UniProt P11344)
T3 sequence (P11344 whole entry): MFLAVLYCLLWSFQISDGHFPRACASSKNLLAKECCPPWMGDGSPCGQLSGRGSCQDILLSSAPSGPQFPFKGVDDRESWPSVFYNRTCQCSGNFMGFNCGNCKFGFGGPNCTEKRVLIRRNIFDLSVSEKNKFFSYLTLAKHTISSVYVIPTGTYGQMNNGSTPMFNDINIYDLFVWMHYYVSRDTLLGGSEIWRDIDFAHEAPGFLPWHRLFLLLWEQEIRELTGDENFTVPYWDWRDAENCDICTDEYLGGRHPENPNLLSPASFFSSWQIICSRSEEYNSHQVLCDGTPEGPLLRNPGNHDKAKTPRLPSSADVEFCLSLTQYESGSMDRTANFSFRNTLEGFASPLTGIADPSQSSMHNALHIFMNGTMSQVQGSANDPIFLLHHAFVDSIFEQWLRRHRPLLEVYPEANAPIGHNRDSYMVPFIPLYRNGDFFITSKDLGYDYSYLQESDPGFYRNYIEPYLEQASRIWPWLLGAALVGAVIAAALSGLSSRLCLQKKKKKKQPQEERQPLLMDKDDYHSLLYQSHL
Description: Inhibition of tyrosinase in mouse B16-F10 cells assessed as inhibition of melanin production measured after 72 hrs

SMILES	IC50 (Tyrosinase [1])	IC50 (Tyrosinase [2])	Ki (Tyrosinase [3])	Ki (Tyrosinase [4])	Ki (Mushroom tyrosinase)	IC50 (Tyrosinase [5])
Cl.N[C@H](Cc1ccc(=O)n(O)c1)C(=O)O	277 µM	> 400 µM	76 µM	16 µM	12.8 µM	
O=c1ccc(CO)cn1O			7.5 µM	4.1 µM	1.2 µM	61.2 µM
Cl.N[C@@H](Cc1ccc(=O)n(O)c1)C(=O)O	73.6 µM	> 400 µM	8 µM	39 µM	12.5 µM	
Cl.NC(Cc1ccc(=O)n(O)c1)C(=O)O (racemic)	90 µM	> 400 µM	6 µM	42 µM	1.2 µM	10 µM
